According to patent US10392422B2, “Macrocyclic broad spectrum antibiotics” (priority 2014, dated 2019):
In brackets after ≈: the same amount, converted by molar mass. Where two headings read alike, the source gives them in different places.

Tests used:
Experiment in all cases: MIC, broth micro-dilution technique (CLSI)
[1] = test system: Escherichia coli MC4100 harboring the IMP4213; assay type: cell-based; conditions: for MIC: Escherichia coli, 22 h; for MIC (μg/mL) E. coli: Table 2 modified protocol: serial 2-fold dilutions starting from 4 μg/mL
In short: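 Susceptibility is tested by broth micro-dilution per CLSI, using ten serial 2-fold dilutions beginning at 64 μg/ml or, in a modified version, 4 μg/mL. The E. coli MC4100 strain carries an imp allele raising outer-membrane permeability.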

[2] = test system: Methicillin Resistant Staphylococcus aureus strain USA 300 (NRS384); assay type: cell-based; conditions: for MIC: Staphylococcus aureus, 22 h, read-out: MIC (μg/mL) S. aureus
In short: (§1)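 CLSI broth microdilution in cation-adjusted Mueller Hinton broth with 0.002% v/v Tween-80. Compounds were serially 2-fold diluted over 10 concentrations from 64 μg/ml, or from 4 μg/mL in a modified protocol; inoculum at final OD600 0.0005, incubated 35° C for 22 hours.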

MRSA COL (NRS100) = assay type: cell-based, Staphylococcus aureus; conditions: for MIC: Staphylococcus aureus, 22 h, read-out: MIC (μg/mL) (COL)
In short: as §1

[3] = read-out: MIC (μg/mL) E. coli, Table 2 modified protocol: serial 2-fold dilutions starting from 4 μg/mL, 35° C., 22 hours
[4] = Table 2 modified protocol: serial 2-fold dilutions starting from 4 μg/mL, 35° C., 22 hours
[5] = read-out: MIC (μg/mL) E. coli, Table 1 protocol: serial 2-fold dilutions starting from 64 μg/ml, 35° C., 22 hours
[6] = Table 1 protocol: serial 2-fold dilutions starting from 64 μg/ml, 35° C., 22 hours

SMILES | MIC [2] [µg/mL] | MIC (MRSA COL (NRS100)) [µg/mL] | MIC [1, 5] [µg/mL] | MIC [2, 6] [µg/mL] | MIC (MRSA COL (NRS100); [6]) [µg/mL] | other results
C[C@@H]1NC(=O)[C@@H](N(C)C(=O)[C@H](CCCCN)NC(=O)c2ccc(Oc3ccc(Cl)cc3)cc2)c2ccc(OCCN)c(c2)-c2cc(ccc2OCCN)C[C@@H](C(=O)O)NC1=O [Compound 285] | 2 (≈ 2.33 µM) | 0.5 (≈ 0.582 µM) | – | – | – | MIC [1, 3]: 0.25 µg/mL (≈ 0.291 µM)
CCCCCCCCCCNCCC(=O)N(C)[C@@H]1C(=O)N[C@@H](C)C(=O)N[C@H](C(=O)N[C@@H](C)C(C)=O)Cc2ccc(OCCN)c(c2)-c2cc1ccc2OCCN.O=CO [Compound 268] | – | – | – | – | – | MIC (μg/mL) E. coli ([1]; 35° C., 22 hours): 2.5 µg/mL; MIC (μg/mL) S. aureus [2, 4]: 2.1 µg/mL; MIC (μg/mL) (COL) (MRSA COL (NRS100); [4]): 1 µg/mL
CCC(=O)[C@H](C)NC(=O)[C@@H]1Cc2ccc(O)c(c2)-c2cc(ccc2O)[C@H](N(C)C(=O)[C@H](CCCCN)NC(=O)c2ccc(-c3ccc(Cl)cc3)cc2)C(=O)N[C@@H](C)C(=O)N1 [Compound 233] | – | – | 32 (≈ 38.1 µM) | 24 (≈ 28.6 µM) | 4 (≈ 4.77 µM) | –
C[C@@H]1NC(=O)[C@@H](N(C)C(=O)[C@H](CCCCN)NC(=O)c2ccc(-c3ccc(Cl)cc3)cc2)c2ccc(O)c(c2)-c2cc(ccc2O)C[C@@H](C(=O)N[C@@H](C)C(=O)C(=O)N[C@@H]2CCNC2=O)NC1=O [Compound 142] | – | – | 16 (≈ 17.1 µM) | 64 (≈ 68.3 µM) | 16 (≈ 17.1 µM) | –
C[C@H](NC(=O)CCC(=O)[C@H](C)NC(=O)[C@@H]1Cc2ccc(O)c(c2)-c2cc(ccc2O)[C@H](N(C)C(=O)[C@H](CCCCN)NC(=O)c2ccc(-c3ccc(Cl)cc3)cc2)C(=O)N[C@@H](C)C(=O)N1)C(=O)O [Compound 147] | > 64 | > 64 | > 64 | – | – | –
CCCCCCCCCCNCCC(=O)N[C@@H](CCCCN)C(=O)N(C)[C@@H]1C(=O)N[C@@H](C)C(=O)N[C@H](C(=O)N[C@@H](C)C(=O)COC(C)=O)Cc2ccc(O)c(c2)-c2cc1ccc2O [Compound 200] | – | – | 64 (≈ 72.7 µM) | 2 (≈ 2.27 µM) | 0.5 (≈ 0.568 µM) | –
C[C@@H]1NC(=O)[C@@H](N(C)C(=O)[C@H](CCCCN)NC(=O)c2ccc(-c3ccc(Cl)cc3)cc2)c2ccc(O)c(c2)-c2cc(ccc2O)C[C@@H](C(=O)N[C@@H](C)C(=O)C(=O)Nc2ccn[nH]2)NC1=O [Compound 227] | – | – | > 64 | 12 (≈ 13 µM) | 2 (≈ 2.17 µM) | –
CC(NC(=O)[C@@H]1Cc2ccc(O)c(c2)-c2cc(ccc2O)[C@H](N(C)C(=O)[C@H](CCCCN)NC(=O)c2ccc(-c3ccc(Cl)cc3)cc2)C(=O)N[C@@H](C)C(=O)N1)C(=O)c1ncco1 (stereo partly drawn) [Compound 188] | – | – | 11 (≈ 12.5 µM) | 16 (≈ 18.2 µM) | 4 (≈ 4.55 µM) | –
CCCCCCCCCCCCCC(=O)N[C@@H](CCCCN)C(=O)N(C)[C@@H]1C(=O)N[C@@H](C)C(=O)N[C@H](C(=O)O)Cc2ccc(OCCN)c(c2)-c2cc1ccc2OCCN [Compound 293] | 0.063 (≈ 0.0752 µM) | 0.063 (≈ 0.0752 µM) | 0.063 (≈ 0.0752 µM) | – | – | –
C[C@@H]1NC(=O)[C@@H](N(C)C(=O)[C@H](CCCCN)NC(=O)c2ccc(-c3ccc(Cl)cc3)cc2)c2ccc(O)c(c2)-c2cc(ccc2O)C[C@@H](C(=O)NCC(=O)C(=O)O)NC1=O [Compound 239] | – | – | > 4 | > 4 | 4 (≈ 4.75 µM) | –
C[C@@H]1NC(=O)[C@@H](N(C)C(=O)[C@H](CCCCN)NC(=O)c2ccc(-c3ccc(Cl)cc3)cc2)c2ccc(O)c(c2)-c2cc(ccc2O)C[C@@H](C(=O)N[C@@H](C)C(=O)N(C)c2cc[nH]n2)NC1=O [Compound 333] | – | – | 32 (≈ 35.3 µM) | 64 (≈ 70.6 µM) | 16 (≈ 17.7 µM) | –
CCCCCCCCCCS(=O)(=O)N[C@@H](CCCCN)C(=O)N(C)[C@@H]1C(=O)N[C@@H](C)C(=O)N[C@H](C(=O)N[C@@H](C)C(=O)N2CCC[C@H]2C(N)=O)Cc2ccc(O)c(c2)-c2cc1ccc2O [Compound 224] | – | – | 64 (≈ 70.1 µM) | 16 (≈ 17.5 µM) | 0.13 (≈ 0.142 µM) | –
C[C@H](NC(=O)[C@@H]1Cc2ccc(O)c(c2)-c2cc(ccc2O)[C@H](N(C)C(=O)[C@H](CCCCN)NC(=O)c2ccc(-c3ccc(Cl)cc3)cc2)C(=O)N[C@@H](C)C(=O)N1)C(=O)Cn1ccnn1 [Compound 241] | – | – | 16 (≈ 17.9 µM) | 4 (≈ 4.48 µM) | 1.5 (≈ 1.68 µM) | –
CC(=O)OCC(=O)CNC(=O)[C@@H]1Cc2ccc(O)c(c2)-c2cc(ccc2O)[C@H](N(C)C(=O)[C@H](CCCCN)NC(=O)c2ccc(-c3ccc(Cl)cc3)cc2)C(=O)N[C@@H](C)C(=O)N1 [Compound 254] | – | – | – | – | – | MIC [1, 3]: > 4 µg/mL; MIC [2, 4]: 4 µg/mL (≈ 4.6 µM); MIC (MRSA COL (NRS100); [4]): 2 µg/mL (≈ 2.3 µM)
CCCCc1ccc(-c2ccc(C(=O)N[C@@H](CCCCN)C(=O)N(C)[C@@H]3C(=O)N[C@@H](C)C(=O)N[C@H](C(=O)N[C@@H](C)B4O[C@@H]5C[C@@H]6C[C@@H](C6(C)C)[C@]5(C)O4)Cc4ccc(OCCN)c(c4)-c4cc3ccc4OCCN)cc2)cc1 [Compound 316] | 0.13 (≈ 0.122 µM) | 0.031 (≈ 0.029 µM) | 0.094 (≈ 0.0879 µM) | – | – | –
CCCCCCCCCCC(=O)N[C@@H](CCN)C(=O)N(C)[C@@H]1C(=O)N[C@@H](C)C(=O)N[C@H](C(=O)O)Cc2ccc(OCCN)c(c2)-c2cc1ccc2OCCN [Compound 305] | 1 (≈ 1.3 µM) | 0.38 (≈ 0.495 µM) | – | – | – | MIC [1, 3]: 0.13 µg/mL (≈ 0.169 µM)
C[C@@H]1NC(=O)[C@@H](N(C)C(=O)[C@H](CCCCN)NC(=O)c2ccc(-c3ccc(Cl)cc3)cc2)c2ccc(O)c(c2)-c2cc(ccc2O)C[C@@H](C(=O)N[C@@H](C)C(=O)c2ccn[nH]2)NC1=O [Compound 235] | – | – | 32 (≈ 36.5 µM) | 4 (≈ 4.56 µM) | 2 (≈ 2.28 µM) | –
C[C@@H]1NC(=O)[C@@H](N(C)C(=O)[C@H](CCCCN)NC(=O)c2ccc(-c3ccc(Cl)cc3)cc2)c2ccc(O)c(c2)-c2cc(ccc2O)C[C@@H](C(=O)N[C@@H](C)C(=O)c2nnc[nH]2)NC1=O [Compound 231] | – | – | 8 (≈ 9.11 µM) | 6 (≈ 6.83 µM) | 1 (≈ 1.14 µM) | –
C[C@H](NC(=O)[C@@H]1Cc2ccc(O)c(c2)-c2cc(ccc2O)[C@H](N(C)C(=O)[C@H](CCCCN)NC(=O)c2ccc(-c3ccc(Cl)cc3)cc2)C(=O)N[C@@H](C)C(=O)N1)C(=O)Cc1c[nH]nn1 [Compound 192] | – | – | 64 (≈ 71.7 µM) | 11 (≈ 12.3 µM) | 2 (≈ 2.24 µM) | –
CCCCCCCCCC(=O)N[C@@H](CCSC)C(=O)N(C)[C@@H]1C(=O)N[C@@H](C)C(=O)N[C@H](C(=O)N[C@@H](C)C(C)=O)Cc2ccc(OCCN)c(c2)-c2cc1ccc2OCCN.O=CO [Compound 261] | – | – | – | – | – | MIC (μg/mL) E. coli ([1]; 35° C., 22 hours): >4 µg/mL; MIC (μg/mL) S. aureus [2, 4]: 1.5 µg/mL; MIC (μg/mL) (COL) (MRSA COL (NRS100); [4]): 0.38 µg/mL
CCCCCCCCCCNCCC(=O)N[C@@H](CCCCN)C(=O)N(C)[C@@H]1C(=O)N[C@@H](C)C(=O)N[C@H](C(=O)O)Cc2ccc(O)c(c2)-c2cc1ccc2O [Compound 110] | 29 (≈ 38.5 µM) | 8 (≈ 10.6 µM) | 64 (≈ 85 µM) | – | – | –
COP(=O)(O)CC(=O)[C@H](C)NC(=O)[C@@H]1Cc2ccc(O)c(c2)-c2cc(ccc2O)[C@H](N(C)C(=O)[C@H](CCCCN)NC(=O)c2ccc(-c3ccc(Cl)cc3)cc2)C(=O)N[C@@H](C)C(=O)N1 [Compound 167] | 16 (≈ 17.4 µM) | 4 (≈ 4.35 µM) | – | – | – | MIC ([1]; read-out: MIC (μg/mL) E. coli): > 64 µg/mL
CCCCCCCCCCNCCC(=O)N[C@@H](CCCCN)C(=O)N(C)[C@@H]1C(=O)N[C@@H](C)C(=O)N[C@H](C(=O)N[C@@H](C)C(C)=O)Cc2ccc(O)c(c2)-c2cc1ccc2O [Compound 114] | > 64 | 1 (≈ 1.22 µM) | 32 (≈ 38.9 µM) | – | – | –
CC(=O)[C@H](C)NC(=O)[C@@H]1Cc2ccc(O)c(c2)-c2cc(ccc2OCCCN)[C@H](N(C)C(=O)[C@H](CCCCN)NC(=O)c2ccc(-c3ccc(Cl)cc3)cc2)C(=O)N[C@@H](C)C(=O)N1 [Compound 202] | – | – | 8 (≈ 9.07 µM) | 2.8 (≈ 3.17 µM) | 0.5 (≈ 0.567 µM) | –
C[C@@H]1NC(=O)[C@@H](N(C)C(=O)[C@H](CCCCN)NC(=O)c2ccc(-c3ccc(Cl)cc3)cc2)c2ccc(O)c(c2)-c2cc(ccc2O)C[C@@H](C(=O)N[C@@H](C)C(=O)C(F)(F)C(N)=O)NC1=O [Compound 228] | – | – | 15 (≈ 16.6 µM) | 5.3 (≈ 5.86 µM) | 2 (≈ 2.21 µM) | –
